Drawing on article PMC10523529 (Proceedings of the National Academy of Sciences of the …, 2023), this text covers Kd for one compound.

In general, Kd refers to the constant that tells how readily two partners part at equilibrium.

The target of the assay is T1, TAK1 (TAK1-TAB1 fusion protein) (Homo sapiens, UniProt O43318).
T1 sequence (O43318 15-303): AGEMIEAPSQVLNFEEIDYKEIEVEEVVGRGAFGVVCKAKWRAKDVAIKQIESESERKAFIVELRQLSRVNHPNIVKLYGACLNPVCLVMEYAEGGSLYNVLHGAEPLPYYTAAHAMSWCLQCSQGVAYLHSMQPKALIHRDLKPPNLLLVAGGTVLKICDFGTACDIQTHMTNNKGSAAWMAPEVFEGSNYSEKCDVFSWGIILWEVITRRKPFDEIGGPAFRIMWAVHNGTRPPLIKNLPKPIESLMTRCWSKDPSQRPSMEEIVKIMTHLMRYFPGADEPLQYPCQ
T1 sequence (Q15750 468-504 partner): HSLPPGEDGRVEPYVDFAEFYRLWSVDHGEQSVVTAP
In words: SPR. The class given is binding.

On to `COc1cc(Nc2ncc(F)c(Nc3ccc4c(n3)N(COP(=O)(O)O)C(=O)C(C)(C)O4)n2)cc(OC)c1OC` [R788], for which the affinity, expressed as Kd, was 12.1 µM.
